Measurements taken from US8236762B2, “Peptide-cytotoxic conjugates” (IPSEN Pharma S.A.S., priority 2006, dated 2012).
Read-outs that look alike come from different tables or passages of the source.

Experiments:
[1] = Half-life determination in mouse plasma (LC-MS); assay type: in vitro ADME; conditions: 37° C.
Description: (§1) Samples containing approximately 50 μg/ml up to and including approximately 500 μg/ml of test compound according to Formula IA or IB or II was added to 450 μl human or mouse plasma, vortexed briefly and incubated at 37° C. At various time intervals, e.g., 0, 0.5, 1, 2, 4, 6, 8, 24, 36 and 48 hours, 50 μl of the compound-plasma mixture was added to 150 μl acetonitrile in a microcentrifuge tube. The mixture was vortexed, centrifuged for 5 minutes at 10K RPM, and 135 μl of supernatant was transferred to an injection vial. The recovered supernatant was analyzed by using a liquid chromatography-mass spectrophotometer system (LC-MS) consisting of a Finnigan Deca XP® mass spectrometer with an ESI probe at the positive ion mode. HPLC separation was carried out on a Luna 3μ C8 (2)® 3×50 mm column with a gradient decreasing from 100% A to 80% B for 10 minutes at a flow rate of 0.25 ml/min. Buffer A was 0.1% acetic acid in water and buffer B was 0.1% acetic acid acetonitrile.

hSSTR-4 = target: T1, hSSTR-4 (Homo sapiens, UniProt P31391); assay: Somatostatin receptor radioligand binding, hSSTR-4 (CHO-K1 membranes); conditions: read-out: Ki hSSTR4 ± (SEM)
T1 construct: expressed in transfected cells; host or cells: CHO-K1
Description: (§2) For the hSSTR-1, hSSTR-3, and hSSTR-4 assays, aliquots of the membrane preparations were incubated for 90 minutes at 25° C. with 0.05 nM [^125I-Tyr11]SRIF-14 in 50 mM HEPES (pH 7.4) buffer containing 0.2% BSA and 5 mM MgCl2. The final assay volume was 0.3 ml. For the hSSTR-2 and hSSTR-5 assays, [^125I]-[4-(2-hydroxyethyl)]-1-piperazinylacetyl-D-Phe-c(Cys-Tyr-D-Trp-Lys-Abu-Cys)-Thr-NH2 (0.05 nM) and [^125I]-D-Phe-c(Cys-Tyr-D-Trp-Lys-Val-Cys)-Thr-NH2 were employed as the radioligands, respectively.

hSSTR-3 = target: T2, hSSTR-3 (Homo sapiens, UniProt P32745); assay: Somatostatin receptor radioligand binding, hSSTR-3 (CHO-K1 membranes); conditions: read-out: Ki hSSTR3 ± (SEM)
T2 construct: expressed in transfected cells; host or cells: CHO-K1
Description: as §2

hSSTR-1 = target: T3, hSSTR-1 (Homo sapiens, UniProt P30872); assay: Somatostatin receptor radioligand binding, hSSTR-1 (CHO-K1 membranes); conditions: read-out: Ki hSSTR1 ± (SEM)
T3 construct: expressed in transfected cells; host or cells: CHO-K1
Description: Membranes for in vitro receptor binding assays were obtained by homogenizing (Polytron setting 6, 15 sec) CHO-K1 cells expressing human somatostatin receptor subtypes hSSTR-1, hSSTR-2, hSSTR-3, hSSTR-4 or hSSTR-5 in ice-cold 50 mM Tris-HCl. The homogenized cells were centrifuged twice at 39,000 g for 10 minutes with an intermediate resuspension in fresh buffer. The final pellets were resuspended in 10 mM Tris-HCl to prepare the cell membrane homogenate for use in the binding assay.
The final assay volume was 0.3 ml.
The cell membrane homogenate was incubated with the radioligands for 90 minutes at 25° C. The incubations were terminated by rapid filtration through GF/C filters pre-soaked in 0.3% polyethylenimine using a Brandel® filtration manifold (Gaithersberg, Md., U.S.A.). Each tube and filter was washed three times with 5-ml aliquots of ice-cold buffer. Specific binding was defined as the total radioligand bound minus that bound in the presence of 1000 nM SRIF-14 (for hSSTR-1, hSSTR-3, hSSTR-4 or hSSTR-5), or 1000 nM DPhe-c(Cys-Tyr-D-Trp-Lys-Abu-Cys)-Thr-NH2 for hSSTR-2.

[2] = Half-life determination in human plasma (LC-MS); assay type: in vitro ADME; conditions: 37° C.
Description: as §1

[3] = [125I-Tyr11]SRIF-14, value of 1000 indicates at least 1000

T1 sequence (P31391 whole entry): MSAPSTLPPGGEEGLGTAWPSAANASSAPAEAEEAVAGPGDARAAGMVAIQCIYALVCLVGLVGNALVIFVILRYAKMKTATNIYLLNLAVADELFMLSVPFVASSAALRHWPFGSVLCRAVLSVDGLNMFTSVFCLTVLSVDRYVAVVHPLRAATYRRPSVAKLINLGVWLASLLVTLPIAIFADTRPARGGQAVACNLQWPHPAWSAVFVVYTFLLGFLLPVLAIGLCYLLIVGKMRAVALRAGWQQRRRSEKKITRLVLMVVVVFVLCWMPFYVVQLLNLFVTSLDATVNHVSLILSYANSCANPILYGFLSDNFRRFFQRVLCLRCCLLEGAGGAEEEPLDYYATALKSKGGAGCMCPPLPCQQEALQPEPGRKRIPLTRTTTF
T3 sequence (P30872 whole entry): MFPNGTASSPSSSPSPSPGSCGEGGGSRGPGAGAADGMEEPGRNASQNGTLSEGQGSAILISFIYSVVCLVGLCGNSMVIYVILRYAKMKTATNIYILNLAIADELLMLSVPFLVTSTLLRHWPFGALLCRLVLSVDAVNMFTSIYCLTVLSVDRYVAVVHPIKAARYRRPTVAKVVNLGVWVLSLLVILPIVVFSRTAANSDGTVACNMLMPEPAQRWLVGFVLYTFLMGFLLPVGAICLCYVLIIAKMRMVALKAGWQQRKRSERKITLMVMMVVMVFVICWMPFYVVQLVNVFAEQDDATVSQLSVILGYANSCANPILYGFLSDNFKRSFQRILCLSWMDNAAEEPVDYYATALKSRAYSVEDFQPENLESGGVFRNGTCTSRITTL
T2 sequence (P32745 whole entry): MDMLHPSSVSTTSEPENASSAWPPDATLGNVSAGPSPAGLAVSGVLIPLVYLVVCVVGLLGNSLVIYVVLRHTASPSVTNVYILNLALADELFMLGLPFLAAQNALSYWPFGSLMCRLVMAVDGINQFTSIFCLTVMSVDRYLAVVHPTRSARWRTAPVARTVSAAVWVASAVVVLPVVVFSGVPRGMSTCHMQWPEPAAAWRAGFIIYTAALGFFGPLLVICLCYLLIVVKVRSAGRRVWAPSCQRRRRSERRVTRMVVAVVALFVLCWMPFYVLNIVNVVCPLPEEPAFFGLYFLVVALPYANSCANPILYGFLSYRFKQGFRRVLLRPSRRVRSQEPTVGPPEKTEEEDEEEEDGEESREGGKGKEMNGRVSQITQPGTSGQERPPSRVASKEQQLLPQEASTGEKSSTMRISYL

Molecule	half-life [1] [h]	Ki (hSSTR-4) [nM]	Ki (hSSTR-3) [nM]	Ki (hSSTR-1) [nM]	half-life [2] [h]	Ki (hSSTR-4; [3]) [nM]	Ki (hSSTR-3; [3]) [nM]	Ki (hSSTR-1; [3]) [nM]
CC[C@@H]1NC(=O)[C@H](CCCCN)NC(=O)[C@@H](Cc2c[nH]c3ccccc23)NC(=O)[C@H](Cc2ccc(O)cc2)NC(=O)[C@@H](NC(=O)[C@@H](Cc2ccccc2)NC(=O)CN2CCN(CCNC(=O)COCCOCCNC(=O)COCCOCCNC(=O)COCCOCCNC(=O)COCCOCCNC(=O)CCC(=O)N[C@@H](CC3CCCCC3)C(=O)O[C@]3(CC)C(=O)OCc4c3cc3n(c4=O)Cc4cc5ccccc5nc4-3)CC2)CSSC[C@@H](C(=O)N[C@H](C(N)=O)[C@@H](C)O)NC1=O [Example 1, Camptothecin-rvCha-Suc-(Doc)4-Aepa-DPhe-c(Cys-Tyr-DTrp-Lys-Abu-Cys)-Thr-NH2]	2	≥ 1000	155	≥ 1000	4.7	–	–	–
CC[C@@H]1NC(=O)[C@H](CCCCN)NC(=O)[C@@H](Cc2c[nH]c3ccccc23)NC(=O)[C@H](Cc2ccc(O)cc2)NC(=O)[C@@H](NC(=O)[C@@H](Cc2ccccc2)NC(=O)CN2CCN(CCNC(=O)COCCOCCNC(=O)COCCOCCNC(=O)COCCOCCNC(=O)COCCOCCNC(=O)CCC(=O)N[C@@H](CCCNC(=N)N)C(=O)O[C@]3(CC)C(=O)OCc4c3cc3n(c4=O)Cc4cc5ccccc5nc4-3)CC2)CSSC[C@@H](C(=O)N[C@H](C(N)=O)[C@@H](C)O)NC1=O [Example 7, Camptothecin-rvArg-Suc-(Doc)4-Aepa-D-Phe-c(Cys-Tyr-D-Trp-Lys-Abu-Cys)-Thr-NH2]	1.2	≥ 1000	479	≥ 1000	1.5	–	–	–
CC[C@@H]1NC(=O)[C@H](CCCCN)NC(=O)[C@@H](Cc2c[nH]c3ccccc23)NC(=O)[C@H](Cc2ccc(O)cc2)NC(=O)[C@@H](NC(=O)[C@@H](Cc2ccccc2)NC(=O)CN2CCN(CCNC(=O)COCCOCCNC(=O)COCCOCCNC(=O)COCCOCCNC(=O)COCCOCCNC(=O)CCC(=O)N[C@@H](Cc3ccccc3)C(=O)O[C@]3(CC)C(=O)OCc4c3cc3n(c4=O)Cc4cc5ccccc5nc4-3)CC2)CSSC[C@@H](C(=O)N[C@H](C(N)=O)[C@@H](C)O)NC1=O [Example 10, Camptothecin-rvPhe-Suc-(Doc)4-Aepa-D-Phe-c(Cys-Tyr-D-Trp-Lys-Abu-Cys)-Thr-NH2]	2.4	≥ 1000	–	≥ 1000	0.3	–	–	–
CC[C@@H]1NC(=O)[C@H](CCCCN)NC(=O)[C@@H](Cc2c[nH]c3ccccc23)NC(=O)[C@H](Cc2ccc(O)cc2)NC(=O)[C@@H](NC(=O)[C@@H](Cc2ccccc2)NC(=O)CN2CCN(CCNC(=O)COCCOCCNC(=O)COCCOCCNC(=O)COCCOCCNC(=O)COCCOCCNC(=O)CCC(=O)NCCCCC(=O)O[C@]3(CC)C(=O)OCc4c3cc3n(c4=O)Cc4cc5ccccc5nc4-3)CC2)CSSC[C@@H](C(=O)N[C@H](C(N)=O)[C@@H](C)O)NC1=O [Example 11, Camptothecin-rvApn-Suc-(Doc)4-Aepa-D-Phe-c(Cys-Tyr-D-Trp-Lys-Abu-Cys)-Thr-NH2]	3.7	≥ 1000	–	≥ 1000	5	–	–	–
CC[C@@H]1NC(=O)[C@H](CCCCN)NC(=O)[C@@H](Cc2c[nH]c3ccccc23)NC(=O)[C@H](Cc2ccc(O)cc2)NC(=O)[C@@H](NC(=O)[C@@H](Cc2ccccc2)NC(=O)CN2CCN(CCNC(=O)COCCOCCNC(=O)COCCOCCNC(=O)COCCOCCNC(=O)COCCOCCNC(=O)CCC(=O)N[C@@H](CC)C(=O)O[C@]3(CC)C(=O)OCc4c3cc3n(c4=O)Cc4cc5ccccc5nc4-3)CC2)CSSC[C@@H](C(=O)N[C@H](C(N)=O)[C@@H](C)O)NC1=O [Example 12, Camptothecin-rvAbu-Suc-(Doc)4-Aepa-D-Phe-c(Cys-Tyr-D-Trp-Lys-Abu-Cys)-Thr-NH2]	6	≥ 1000	–	≥ 1000	0.7	–	–	–
CC[C@@H]1NC(=O)[C@H](CCCCN)NC(=O)[C@@H](Cc2c[nH]c3ccccc23)NC(=O)[C@H](Cc2ccc(O)cc2)NC(=O)[C@@H](NC(=O)[C@@H](Cc2ccccc2)NC(=O)CN2CCN(CCNC(=O)COCCOCCNC(=O)COCCOCCNC(=O)COCCOCCNC(=O)COCCOCCNC(=O)CCC(=O)N[C@@H](C(=O)O[C@]3(CC)C(=O)OCc4c3cc3n(c4=O)Cc4cc5ccccc5nc4-3)C(C)C)CC2)CSSC[C@@H](C(=O)N[C@H](C(N)=O)[C@@H](C)O)NC1=O [Example 13, Camptothecin-rvD-Val-Suc-(Doc)4-Aepa-D-Phe-c(Cys-Tyr-D-Trp-Lys-Abu-Cys)-Thr-NH2]	7.7	≥ 1000	–	≥ 1000	0.3	–	–	–
CC[C@@H]1NC(=O)[C@H](CCCCN)NC(=O)[C@@H](Cc2c[nH]c3ccccc23)NC(=O)[C@H](Cc2ccc(O)cc2)NC(=O)[C@@H](NC(=O)[C@@H](Cc2ccccc2)NC(=O)CN2CCN(CCNC(=O)COCCOCCNC(=O)COCCOCCNC(=O)COCCOCCNC(=O)COCCOCCNC(=O)CCC(=O)N[C@@H](C)C(=O)O[C@]3(CC)C(=O)OCc4c3cc3n(c4=O)Cc4cc5ccccc5nc4-3)CC2)CSSC[C@@H](C(=O)N[C@H](C(N)=O)[C@@H](C)O)NC1=O [Example 14, Camptothecin-rvAla-Suc-(Doc)4-Aepa-D-Phe-c(Cys-Tyr-D-Trp-Lys-Abu-Cys)-Thr-NH2]	4.6	≥ 1000	≥ 1000	≥ 1000	1.3	–	–	–
CC[C@@H]1NC(=O)[C@H](CCCCN)NC(=O)[C@@H](Cc2c[nH]c3ccccc23)NC(=O)[C@H](Cc2ccc(O)cc2)NC(=O)[C@@H](NC(=O)[C@@H](Cc2ccccc2)NC(=O)CN2CCN(CCNC(=O)COCCOCCNC(=O)COCCOCCNC(=O)COCCOCCNC(=O)COCCOCCNC(=O)CCC(=O)N[C@H](C(=O)O[C@]3(CC)C(=O)OCc4c3cc3n(c4=O)Cc4cc5ccccc5nc4-3)C(C)C)CC2)CSSC[C@@H](C(=O)N[C@H](C(N)=O)[C@@H](C)O)NC1=O [Example 15, Camptothecin-rvVal-Suc-(Doc)4-Aepa-D-Phe-c(Cys-Tyr-D-Trp-Lys-Abu-Cys)-Thr-NH2]	5	≥ 1000	–	≥ 1000	0.4	–	–	–
CC[C@@H]1NC(=O)[C@H](CCCCN)NC(=O)[C@@H](Cc2c[nH]c3ccccc23)NC(=O)[C@H](Cc2ccc(O)cc2)NC(=O)[C@@H](NC(=O)[C@@H](Cc2ccccc2)NC(=O)CN2CCN(CCNC(=O)COCCOCCNC(=O)COCCOCCNC(=O)COCCOCCNC(=O)COCCOCCNC(=O)CCCC(=O)O[C@]3(CC)C(=O)OCc4c3cc3n(c4=O)Cc4cc5ccccc5nc4-3)CC2)CSSC[C@@H](C(=O)N[C@H](C(N)=O)[C@@H](C)O)NC1=O [Example 16, Camptothecin-Glut-(Doc)4-Aepa-D-Phe-c(Cys-Tyr-D-Trp-Lys-Abu-Cys)-Thr-NH2]	4.2	≥ 1000	–	≥ 1000	3.6	–	–	–
Camptothecin-rvD-Asp-Suc-(Doc)4-Aepa-D-Phe-c(Cys-Tyr-D-Trp-Lys-Abu-Cys)-Thr-NH2 Camptothecin-rvAsp-Suc-(Doc)4-Aepa-D-Phe-c(Cys-Tyr-D-Trp-Lys-Abu-Cys)-Thr-NH2 [5A′]	–	–	–	–	–	≥ 1000	≥ 1000	≥ 1000
